What is called Emax is the maximal effect, on the per cent scale that the assay sets.

“And” between values parts separate entries of the source, which are not always exact repeats. Equal values may be shown once. Read-outs that look alike come from different tables or passages of the source. Where a SMILES comes first, the peptide text is derived from it. [ ]: non-standard residue; d: D form. Aib = CC(C)(N)C(=O)O

Assay [1] deals with T1, GIPR (Homo sapiens, UniProt P48546).
T1 sequence (P48546 22-466): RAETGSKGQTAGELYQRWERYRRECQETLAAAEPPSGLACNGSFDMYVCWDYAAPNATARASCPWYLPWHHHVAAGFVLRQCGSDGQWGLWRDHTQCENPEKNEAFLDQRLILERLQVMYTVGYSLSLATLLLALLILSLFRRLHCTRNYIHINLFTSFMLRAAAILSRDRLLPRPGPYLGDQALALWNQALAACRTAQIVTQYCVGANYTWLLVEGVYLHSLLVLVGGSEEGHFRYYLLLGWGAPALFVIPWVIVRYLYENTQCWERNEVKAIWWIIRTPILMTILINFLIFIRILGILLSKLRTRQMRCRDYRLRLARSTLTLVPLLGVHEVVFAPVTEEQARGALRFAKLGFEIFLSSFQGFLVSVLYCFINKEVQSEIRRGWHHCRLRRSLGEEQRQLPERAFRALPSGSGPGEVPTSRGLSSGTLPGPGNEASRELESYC
Kind of assay: cAMP accumulation assay (LANCE Ultra cAMP kit), GIPR WT, mutant or modified constructs. The assay is classed as cell-based. Also on record: acylated tirzepatide to the full-length or modified; Flag; expressed in transfected cells; host or cells: HEK293T. As to conditions: for EC50 / Emax: HEK293T; for Emax: HEK-293T, read-out: cAMP accumulation Emax. How it is done: (§1) Human embryonic kidney 293 cells containing SV40 large T-antigen (HEK293T) were cultured in DMEM (Gibco) supplemented with 10% (v/v) fetal bovine serum (FBS, Gibco), 1 mM sodium pyruvate (Gibco) and 100 units/mL penicillin and 100 μg/mL streptomycin at 37 °C in 5% CO2. Chinese hamster ovary (CHO-K1) cells were cultured in F-12 (Gibco) containing 10% FBS, 100 units/mL penicillin and 100 μg/mL streptomycin at 37 °C in 5% CO2. For cAMP and receptor expression assays, HEK293T cells were seeded into 6-well cell culture plates at a density of 7 × 10^5 cells per well. After overnight incubation, cells were transfected with GIPR, GLP-1R or GCGR construct using Lipofectamine 2000 or Lipofectamine 3000 transfection reagent (Invitrogen). For whole-cell binding assay, CHO-K1 cells were seeded into 96-well fibronectin-treated cell culture plates at a density of 3 × 10^4 cells per well. After overnight incubation, cells were transfected with GIPR, GLP-1R or GCGR construct using Lipofectamine 2000 transfection reagent (Invitrogen). Following 24 h culturing, the transfected cells were ready for use.
A BRIL fusion protein was added at the N-terminal of the ECD with a TEV protease site and 2GSA linker between them. C-terminal 45 amino acids (Q422-C466) of the receptor were truncated. LgBiT was added at the end of helix 8 with a 15-amino acid (15AA) polypeptide linker in between, followed by a TEV protease cleavage site and an OMBP-MBP tag. […] The construct and various mutants of human GIPR were cloned into pcDNA3.1 vector for cAMP accumulation and whole-cell binding assays.
For GIPR, GLP-1R and GCGR, multi-targeting agonist stimulated cAMP accumulation was measured by a LANCE Ultra cAMP kit (PerkinElmer). After 24 h culture, the transfected cells were seeded into 384-well microtiter plates at a density of 3,000 cells per well in HBSS supplemented with 5 mM HEPES, 0.1% (w/v) BSA or 0.1% (w/v) casein and 0.5 mM 3-isobutyl-1-methylxanthine. The cells were stimulated with different concentrations of peptide agonists for 40 min at RT. Eu-cAMP tracer and ULight^TM-anti-cAMP were then diluted by cAMP detection buffer and added to the plates separately to terminate the reaction. Plates were incubated at RT for 1 h and the fluorescence intensity measured at 620 nm and […] by an EnVision multilabel plate reader (PerkinElmer).

A further assay addresses GLP-1R (Homo sapiens, UniProt P43220). Put plainly: Whole-cell binding assay, competition with 125I-GLP-1(7-36)NH2. As to conditions: for binding Span / IC50: CHO-K1. Also on record: Flag; expressed in transfected cells. Here is the method:
as §1
(§2) For GLP-1R and GCGR, CHO-K1 cells (30,000 cells/well) were seeded into Isoplate-96 plates and incubated for 24 h at 37 °C in 5% CO2. The WT or mutant constructs were transiently transfected using Lipofectamine 2000 transfection reagent as previous described. They were then washed twice using F-12 with 0.1% BSA or 0.1% casein, 33 mM HEPES, and incubated for 2 h at 37 °C. […] Cells were washed three times with ice-cold PBS and lysed in PBS with 1% Triton X-100, 20 mM Tris-HCl. After addition of scintillation cocktail (PerkinElmer), radioactivity (CPM) was counted on a MicroBeta^2 microplate counter (PerkinElmer). Data were normalized to the WT response and analyzed using three-parameter logistic equation.

The target of assay [2] is T1, GIPR. Put plainly: Whole-cell binding assay, competition with 125I-GIP1-42. Also on record: acylated tirzepatide to the full-length or modified; Flag; expressed in transfected cells. How it is done: as §1
For GIPR, CHO-K1 cells were cultured in F-12 medium with 10% FBS and seeded at a density of 30,000 cells/well in Isoplate-96 plates (PerkinElmer). The WT or mutant GIPR was transiently transfected using Lipofectamine 2000 transfection reagent as previous described. They were then washed twice using F-12 with 0.1% BSA or 0.1% casein, 33 mM HEPES, and incubated for 2 h at 37 °C. […] Following incubation, cells were washed three times with ice-cold PBS and lysed by addition of 50 μL lysis buffer (PBS supplemented with 20 mM Tris-HCl, 1% Triton X-100, pH 7.4). Fifty µL of scintillation cocktail (OptiPhase SuperMix, PerkinElmer) were added and the plates were subsequently counted for radioactivity (counts per minute, CPM) in a MicroBeta^2 microplate counter (PerkinElmer).

The next assay deals with GCGR (Homo sapiens, UniProt P47871). Kind of assay: Whole-cell binding assay, competition with 125I-GCG. The note with it: for binding Span / binding pIC50: GCGR WT, CHO-K1. Also on record: V5 (C); 6×His (C); expressed in transfected cells; host or cells: CHO-K1. How it is done:
as §1, §2

[3] abbreviates: GIPR WT, 0.1% casein, CHO-K1, read-out: Binding pIC50 (converted).
The mark [4] stands for this setting: GIPR, effect of tirzepatide acylation, CHO-K1, read-out: binding pIC50 (converted).

Sequence of GLP-1R (P43220 24-463): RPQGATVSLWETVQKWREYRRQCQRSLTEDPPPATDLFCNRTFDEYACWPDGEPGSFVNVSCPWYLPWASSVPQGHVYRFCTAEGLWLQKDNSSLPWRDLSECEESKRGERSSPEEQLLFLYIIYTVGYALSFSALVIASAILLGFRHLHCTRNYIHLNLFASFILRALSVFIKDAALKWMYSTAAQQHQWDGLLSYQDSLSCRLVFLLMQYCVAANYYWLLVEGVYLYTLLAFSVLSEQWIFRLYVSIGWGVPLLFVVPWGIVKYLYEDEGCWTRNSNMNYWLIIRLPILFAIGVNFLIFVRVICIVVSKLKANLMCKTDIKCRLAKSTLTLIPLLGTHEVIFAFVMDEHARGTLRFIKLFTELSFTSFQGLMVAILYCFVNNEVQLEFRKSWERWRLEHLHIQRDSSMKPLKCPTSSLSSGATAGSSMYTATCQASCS
Sequence of GCGR (P47871 26-477): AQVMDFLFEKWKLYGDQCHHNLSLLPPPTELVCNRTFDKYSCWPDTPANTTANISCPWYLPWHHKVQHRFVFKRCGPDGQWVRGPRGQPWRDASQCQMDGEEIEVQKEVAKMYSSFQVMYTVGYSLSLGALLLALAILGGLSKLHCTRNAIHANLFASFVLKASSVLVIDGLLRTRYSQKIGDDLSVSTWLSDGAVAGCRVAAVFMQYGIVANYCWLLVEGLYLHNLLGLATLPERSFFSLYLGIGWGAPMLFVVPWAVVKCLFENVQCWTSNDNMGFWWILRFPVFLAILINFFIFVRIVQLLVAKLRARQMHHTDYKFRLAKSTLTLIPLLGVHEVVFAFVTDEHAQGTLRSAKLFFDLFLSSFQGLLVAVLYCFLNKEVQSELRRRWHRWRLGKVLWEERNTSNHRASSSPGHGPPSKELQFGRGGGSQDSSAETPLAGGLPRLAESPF

With `CC[C@H](C)[C@H](NC(=O)[C@H](CC(C)C)NC(=O)[C@H](Cc1c[nH]c2ccccc12)NC(=O)[C@H](CCC(N)=O)NC(=O)[C@@H](NC(=O)[C@H](Cc1ccccc1)NC(=O)[C@H](C)NC(=O)[C@H](CCCCN)NC(=O)[C@H](CCC(N)=O)NC(=O)[C@H](C)NC(=O)[C@@H](NC(=O)[C@H](CCCCN)NC(=O)[C@H](CC(=O)O)NC(=O)[C@H](CC(C)C)NC(=O)C(C)(C)NC(=O)[C@@H](NC(=O)[C@H](CO)NC(=O)[C@H](Cc1ccc(O)cc1)NC(=O)[C@H](CC(=O)O)NC(=O)[C@H](CO)NC(=O)[C@@H](NC(=O)[C@H](Cc1ccccc1)NC(=O)[C@@H](NC(=O)CNC(=O)[C@H](CCC(=O)O)NC(=O)C(C)(C)NC(=O)[C@@H](N)Cc1ccc(O)cc1)[C@@H](C)O)[C@@H](C)O)[C@@H](C)CC)[C@@H](C)CC)C(C)C)C(=O)N[C@@H](C)C(=O)NCC(=O)NCC(=O)N1CCC[C@H]1C(=O)N[C@@H](CO)C(=O)N[C@@H](CO)C(=O)NCC(=O)N[C@@H](C)C(=O)N1CCC[C@H]1C(=O)N1CCC[C@H]1C(=O)N1CCC[C@H]1C(=O)N[C@@H](CO)C(N)=O` [Non-acylated tirzepatide], the EC50 on GIPR [1] (GIPR WT, 0.1% BSA, read-out: cAMP accumulation pEC50 (converted)) is 0.00182 nM. Moreover, the “binding Span” value at GLP-1R (GLP-1R WT, 0.1% casein) is 80.39 ± 9.18; on GLP-1R (GLP-1R, effect of tirzepatide acylation), 81.36 ± 4.36 % WT or Tirzepatide; at GIPR [2] (GIPR WT, 0.1% casein, CHO-K1), 88.80 ± 5.25; at GIPR [2] (GIPR, effect of tirzepatide acylation, CHO-K1), 90.71 ± 3.70 % WT or Tirzepatide. For the same compound, the IC50 is 24.5 nM on GLP-1R (GLP-1R WT, 0.1% casein, read-out: Binding pIC50 (converted)); 12.3 nM on GLP-1R (GLP-1R, effect of tirzepatide acylation, read-out: binding pIC50 (converted)); 3.39 nM on GIPR [2] (setting [3]); 12.6 nM on GIPR [2] (setting [4]).
For `CC(C)C[C@H](NC(=O)[C@H](CC(C)C)NC(=O)[C@H](Cc1c[nH]c2ccccc12)NC(=O)[C@H](CCC(N)=O)NC(=O)[C@@H](NC(=O)[C@H](Cc1ccccc1)NC(=O)[C@H](CC(=O)O)NC(=O)[C@H](CCC(N)=O)NC(=O)[C@H](C)NC(=O)[C@H](C)NC(=O)[C@H](CCCNC(=N)N)NC(=O)[C@H](CCC(=O)O)NC(=O)[C@H](CC(=O)O)NC(=O)[C@H](CC(C)C)NC(=O)[C@H](Cc1ccc(O)cc1)NC(=O)[C@H](CCCCN)NC(=O)[C@H](CO)NC(=O)[C@H](CCCCN)NC(=O)[C@H](CC(=O)O)NC(=O)[C@H](CO)NC(=O)[C@@H](NC(=O)[C@H](Cc1ccccc1)NC(=O)[C@@H](NC(=O)CNC(=O)[C@H](CCC(N)=O)NC(=O)C(C)(C)NC(=O)[C@@H](N)Cc1c[nH]cn1)[C@@H](C)O)[C@@H](C)O)C(C)C)C(=O)N[C@@H](CC(=O)O)C(=O)NCC(=O)NCC(=O)N1CCC[C@H]1C(=O)N[C@@H](CO)C(=O)N[C@@H](CO)C(=O)NCC(=O)N[C@@H](C)C(=O)N1CCC[C@H]1C(=O)N1CCC[C@H]1C(=O)N1CCC[C@H]1C(=O)N[C@@H](CO)C(N)=O` [Non-lipidated peptide 20] (H-H[Aib]QGTFTSDKSKYLDERAAQDFVQWLLDGGPSSGAPPPS-NH2; N-terminus and C-terminus assumed), the “reduction of cAMP accumulation vs peptide 20” value at GIPR [1] (GIPR, 0.1% BSA) is listed as 1,288 fold. For the same compound, the “EC50 for cAMP accumulation relative to peptide 20” value on GIPR [1] (GIPR, 0.1% casein) is given as −871 fold. The maximal response (Emax) at GIPR [1] (GIPR WT, 0.1% BSA) is 99.4 ± 6.44%; on GIPR [1] (GIPR WT, 0.1% casein), 88.5 ± 6.52%. In addition, the “decrease of binding ability (IC50) vs peptide 20” value on GLP-1R (GLP-1R, 0.1% casein or 0.1% BSA) was 3- to 17 fold. Besides, the “binding Span” value at GCGR (0.1% BSA) and on GCGR (0.1% casein) was “N.B” in each case. Further, the “binding pIC50” value at GCGR (0.1% BSA) and on GCGR (0.1% casein) was “N.B” throughout. Further, the IC50 at GIPR [2] (GIPR WT, 0.1% BSA, CHO-K1, read-out: Binding pIC50 (converted)) is 51.3 nM; at GIPR [2] (setting [3]) it was 170 nM.
For the compound `CC[C@H](C)[C@H](NC(=O)[C@H](CC(C)C)NC(=O)[C@H](Cc1c[nH]c2ccccc12)NC(=O)[C@H](CCC(N)=O)NC(=O)[C@@H](NC(=O)[C@H](Cc1ccccc1)NC(=O)[C@H](C)NC(=O)[C@H](CCCCNC(=O)COCCOCCNC(=O)COCCOCCNC(=O)CC[C@H](NC(=O)CCCCCCCCCCCCCCCCCCC(=O)O)C(=O)O)NC(=O)[C@H](CCC(N)=O)NC(=O)[C@H](C)NC(=O)[C@@H](NC(=O)[C@H](CCCCN)NC(=O)[C@H](CC(=O)O)NC(=O)[C@H](CC(C)C)NC(=O)C(C)(C)NC(=O)[C@@H](NC(=O)[C@H](CO)NC(=O)[C@H](Cc1ccc(O)cc1)NC(=O)[C@H](CC(=O)O)NC(=O)[C@H](CO)NC(=O)[C@@H](NC(=O)[C@H](Cc1ccccc1)NC(=O)[C@@H](NC(=O)CNC(=O)[C@H](CCC(=O)O)NC(=O)C(C)(C)NC(=O)[C@@H](N)Cc1ccc(O)cc1)[C@@H](C)O)[C@@H](C)O)[C@@H](C)CC)[C@@H](C)CC)C(C)C)C(=O)N[C@@H](C)C(=O)NCC(=O)NCC(=O)N1CCC[C@H]1C(=O)N[C@@H](CO)C(=O)N[C@@H](CO)C(=O)NCC(=O)N[C@@H](C)C(=O)N1CCC[C@H]1C(=O)N1CCC[C@H]1C(=O)N1CCC[C@H]1C(=O)N[C@@H](CO)C(N)=O` [Tirzepatide], the EC50 at GIPR [1] (GIPR WT, read-out: cAMP pEC50 (converted)) was 0.0288 nM; at GIPR [1] (GIPR, n = 4, SEM, read-out: cAMP pEC50 ± S.E.M. (converted)), 0.0126 nM. Further, at GCGR (Fig. 7c receptor binding profile, n = 3 in duplicate), the “GCGR (pIC50 ± S.E.M.)” value was “N.B”. In addition, the IC50 at GIPR [2] (Fig. 7c receptor binding profile, n = 3 in duplicate, SEM, read-out: GIPR (pIC50 ± S.E.M.) (converted)) was 31.6 nM; at GIPR [2] (setting [3]), 3.16 nM; on GIPR [2] (GIPR WT, CHO-K1, read-out: binding pIC50 (converted)) it was 89.1 nM and 97.7 nM; on GIPR [2] (setting [4]), 105 nM. In addition, the “binding Span” value worked out at 92.95 ± 3.97 at GIPR [2] (GIPR WT, 0.1% casein, CHO-K1) and 102.92 ± 6.94 % WT on GIPR [2] (GIPR WT, CHO-K1).

These data come from publication PMC8881610 (Nature Communications, 2022).
